In patent US7169932B2 (priority 2001, dated 2007):

Columns and labels:
[1] = target: T1, HIV-1 protease (Q7S) (Human immunodeficiency virus type 1 group M subtype B, UniProt P04585, Q495S); test: HIV-1 Protease RET Assay; assay type: biochemical; conditions: Ave. Ki (nM), RET assay, Q7S enzyme, pH 4.8, 37 C
T1 construct: made in house
Summary of the method: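 Ki values came from a RET assay on refolded Q7S protease (2 nM active dimer) cleaving RE(EDANS)SQNYPIVQK(DABCYL)R at 5 μM, read at ex 340/em 490 nm. Reactions ran 12 min at 37 C in 0.1M sodium acetate pH 4.8, 1M NaCl, 5 mM DTT, 10% DMSO; curves were fit with the Morrison tight-binding equation.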

[2] = tested on: HIV-1; test: Cytopathic Effect (CPE) Inhibition Assay (XTT dye reduction); assay type: cell-based; conditions: Human immunodeficiency virus 1, 144 h, read-out: Ave CPE EC50 (mM)
Summary of the method: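 CEM-SS or MT-2 cells infected with HIV-1 RF or NL4–3 (moi 0.025–0.819), 2×10^4 cells/well, incubated six days with half-log compound dilutions. Viability read by XTT formazan at 450 nm; EC50 is the concentration restoring 50% of uninfected-control formazan, CC50 from uninfected treated cells, therapeutic index CC50/EC50.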

| Structure (SMILES) | melting point [°C] | Ki [1] [nM] | EC50 [2] [mM] |
| --- | --- | --- | --- |
| C=CCNC(=O)[C@H]1N(C(=O)[C@@H](O)[C@H](Cc2ccccc2)NC(=O)c2cccc(O)c2C)CSC1(C)C | 173 to 175 | – | – |
| COc1ccccc1CNC(=O)[C@H]1N(C(=O)C(O)C(Cc2ccccc2)NC(=O)c2cccc(O)c2C)CSC1(C)C (stereo partly drawn) [Example A3, (R)-3-(2-Hydroxy-3-{[1-(3-hydroxy-2-methyl-phenyl)-methanoyl]-amino}-4-phenyl-butanoyl)-5,5-dimethyl-thiazolidine-4-carboxylic acid 2-methoxy-benzylamide] | 123 to 125 | 1.7 | 0.00037 |
| Cc1c(O)cccc1C(=O)NC(Cc1ccccc1)C(O)C(=O)N1CSC(C)(C)C1C(=O)NCc1cccc(C(F)(F)F)c1 (centres unmarked) [Example A4, 3-(2-Hydroxy-3-{[1-(3-hydroxy-2-methyl-phenyl)-methanoyl]-amino}-4-phenyl-butanoyl)-5,5-dimethyl-thiazolidine-4-carboxylic acid 3-trifluoromethyl-benzylamide] | 108 to 110 | 4.1 | 0.000591 |
| Cc1c(O)cccc1C(=O)N[C@@H](Cc1ccccc1)[C@H](O)C(=O)N1CSC(C)(C)[C@H]1C(=O)NCc1ccc(N)cc1 [Example A16, (R)-3-((2S,3S)-2-Hydroxy-3-{[1-(3-hydroxy-2-methyl-phenyl)-methanoyl]-amino}-4-phenyl-butanoyl)-5,5-dimethyl-thiazolidine-4-carboxylic acid 4-amino-benzylamide] | 107 to 109 | 0.63 | 0.000134 |
| Cc1c(O)cccc1C(=O)N[C@@H](Cc1ccccc1)[C@H](O)C(=O)N1CSC(C)(C)[C@H]1C(=O)N[C@H](C)c1ccccc1 [Example A21, (R)-3-((2S,3S)-2-Hydroxy-3-{[1-(3-hydroxy-2-methyl-phenyl)-methanoyl]-amino}-4-phenyl-butanoyl)-5,5-dimethyl-thiazolidine-4-carboxylic acid ((R)-1-phenyl-ethyl)-amide] | 114 to 115 | 1.9 | 0.000717 |
| Cc1c(O)cccc1C(=O)N[C@@H](Cc1ccccc1)[C@H](O)C(=O)N1CSC(C)(C)[C@H]1C(=O)NCc1cccc(OC(F)(F)F)c1 [Example A25, (R)-3-((2S,3S)-2-Hydroxy-3-{[1-(3-hydroxy-2-methyl-phenyl)-methanoyl]-amino}-4-phenyl-butanoyl)-5,5-dimethyl-thiazolidine-4-carboxylic acid 3-trifluoromethoxy-benzylamide] | 102 to 105 | 5.8 | 0.000248 |
| Cn1cccc1C(=O)N[C@@H](Cc1ccccc1)[C@H](O)C(=O)N1CSC(C)(C)[C@H]1C(=O)NCc1ccccc1Cl [Example B22, 3-{2-Hydroxy-3-[(1-methyl-1H-pyrrole-2-carbonyl)-amino]-4-phenyl-butyryl}-5,5-dimethyl-thiazolidine-4-carboxylic acid 2-chloro-benzylamide] | – | 1.8 | 0.00161 |
| Cc1noc(C)c1C(=O)N[C@@H](Cc1ccccc1)[C@H](O)C(=O)N1CSC(C)(C)[C@H]1C(=O)NCc1ccccc1Cl [Example B23, 3,5-Dimethyl-isoxazole-4-carboxylic acid {1-benzyl-3-[4-(2-chloro-benzylcarbamoyl)-5,5-dimethyl-thiazolidin-3-yl]-2-hydroxy-3-oxo-propyl}-amide] | – | 0.42 | 0.00142 |
| Cn1cccc1C(=O)N[C@@H](Cc1ccccc1)[C@H](O)C(=O)N1CSC(C)(C)[C@H]1C(=O)NCc1c(F)cccc1F [Example B24, 3-{2-Hydroxy-3-[(1-methyl-1H-pyrrole-2-carbonyl)-amino]-4-phenyl-butyryl}-5,5-dimethyl-thiazolidine-4-carboxylic acid 2,6-difluoro-benzylamide] | – | 5.5 | 0.00232 |
| Cc1noc(C)c1C(=O)NC(Cc1ccccc1)C(O)C(=O)N1CSC(C)(C)C1C(=O)NCc1c(F)cccc1F (centres unmarked) [Example B25, 3,5-Dimethyl-isoxazole-4-carboxylic acid {1-benzyl-3-[4-(2,6-difluoro-benzylcarbamyl)-5,5-dimethyl-thiazolidin-3-yl]-2-hydroxy-3-oxo-propyl}-amide] | – | 2.7 | 0.00179 |
| Cn1cccc1C(=O)N[C@@H](Cc1ccccc1)[C@H](O)C(=O)N1CSC(C)(C)[C@H]1C(=O)NCc1ccccc1C(F)(F)F [Example B26, 3-{2-Hydroxy-3-[(1-methyl-1H-pyrrole-2-carbonyl)-amino]-4-phenyl-butyryl}-5,5-dimethyl-thiazolidine-4-carboxylic acid 2-trifluoromethyl-benzylamide] | – | 2.9 | 0.00171 |
| CCCNC(=O)[C@H]1N(C(=O)[C@@H](O)[C@H](Cc2ccccc2)NC(=O)c2ccccc2C)CSC1(C)C [Example B30, (R)-3-{(2S,3S)-2-Hydroxy-4-phenyl-3-[(1-o-tolyl-methanoyl)-amino]-butanoyl}-5,5-dimethyl-thiazolidine-4-carboxylic acid propylamide] | – | 1.1 | 0.00123 |
| CCCNC(=O)[C@H]1N(C(=O)[C@@H](O)[C@H](Cc2ccccc2)NC(=O)c2cccc(F)c2C)CSC1(C)C [Example B31, (R)-3-((2S,3S)-3-{[1-(3-Fluoro-2-methyl-phenyl)-methanoyl]-amino}-2-hydroxy-4-phenyl-butanoyl)-5,5-dimethyl-thiazolidine-4-carboxylic acid propylamide] | – | 1.5 | 0.00132 |
| C=CCNC(=O)[C@H]1N(C(=O)[C@@H](O)[C@H](Cc2ccccc2)NC(=O)c2cccc(F)c2C)CSC1(C)C [Example B33, (R)-3-((2S,3S)-3-{[1-(3-Fluoro-2-methyl-phenyl)-methanoyl]-amino}-2-hydroxy-4-phenyl-butanoyl)-5,5-dimethyl-thiazolidine-4-carboxylic acid allylamide] | – | 1.2 | 0.00129 |
| Cc1ccccc1CNC(=O)[C@H]1N(C(=O)[C@@H](O)[C@H](Cc2ccccc2)NC(=O)c2cccc(F)c2C)CSC1(C)C [Example B36, (R)-3-((2S,3S)-3-{[1-(3-Fluoro-2-methyl-phenyl)-methanoyl]-amino}-2-hydroxy-4-phenyl-butanoyl)-5,5-dimethyl-thiazolidine-4-carboxylic acid 2-methyl-benzylamide] | – | < 0.1 | 0.000615 |
| Cc1ccccc1CNC(=O)[C@H]1N(C(=O)[C@@H](O)[C@H](Cc2ccccc2)NC(=O)c2ccc(F)cc2C)CSC1(C)C [Example B37, (R)-3-((2S,3S)-3-{[1-(4-Fluoro-2-methyl-phenyl)-methanoyl]-amino}-2-hydroxy-4-phenyl-butanoyl)-5,5-dimethyl-thiazolidine-4-carboxylic acid 2-methyl-benzylamide] | – | 0.11 | 0.000736 |
| Cc1ccccc1CNC(=O)[C@H]1N(C(=O)[C@@H](O)[C@H](Cc2ccccc2)NC(=O)c2cccc(N)n2)CSC1(C)C [Example B40, 6-Amino-pyridine-2-carboxylic acid {(1S,2S)-1-benzyl-3-[(R)-5,5-dimethyl-4-(2-methyl-benzylcarbamoyl)-thiazolidin-3-yl]-2-hydroxy-3-oxo-propyl}-amide] | – | 2.8 | 0.0014 |
| Cc1ccccc1CNC(=O)C1N(C(=O)[C@@H](O)[C@H](Cc2ccccc2)NC(=O)c2cccnc2C)CSC1(C)C (stereo partly drawn) [Example B44, N-{(1S,2S)-1-Benzyl-3-[5,5-dimethyl-4-(2-methyl-benzylcarbamoyl)-thiazolidin-3-yl]-2-hydroxy-3-oxo-propyl}-2-methyl-nicotinamide] | – | 0.76 | 0.000629 |
| Cc1ccccc1CNC(=O)[C@H]1N(C(=O)[C@@H](O)[C@H](Cc2ccccc2)NC(=O)c2cccc(O)n2)CSC1(C)C [Example B48] | – | 12 | > 0.0032 |
| Cc1ccccc1CNC(=O)[C@@H]1C[C@H](F)CN1C(=O)[C@@H](O)[C@H](Cc1ccccc1)NC(=O)c1cccc(O)c1C [Example C3, (2S,4S)-4-Fluoro-1-[(2S,3S)-2-hydroxy-3-(3-hydroxy-2-methyl-benzoylamino)-4-phenyl-butyryl]-pyrrolidine-2-carboxylic acid 2-methyl-benzylamide] | – | 1.3 | 0.0005 |
| Cc1ccccc1CNC(=O)[C@@H]1[C@H](C)OCN1C(=O)[C@@H](O)[C@H](Cc1ccccc1)NC(=O)c1cccc(O)c1C [Example C8, (4S,5S)-3-((2S,3S)-2-Hydroxy-3-{[1-(3-hydroxy-2-methyl-phenyl)-methanoyl]-amino}-4-phenyl-butanoyl)-5-methyl-oxazolidine-4-carboxylic acid 2-methyl-benzylamide] | – | 0.26 | 0.000447 |
| Cc1ccc(F)cc1CNC(=O)[C@H]1N(C(=O)[C@@H](O)[C@H](Cc2ccccc2)NC(=O)c2cccc(O)c2C)COC1(C)C [Example C9, (S)-3-((2S,3S)-2-Hydroxy-3-{[1-(3-hydroxy-2-methyl-phenyl)-methanoyl]-amino}-4-phenyl-butanoyl)-5,5-dimethyl-oxazolidine-4-carboxylic acid 5-fluoro-2-methyl-benzylamide] | – | 0.34 | 0.000233 |
| Cc1ccccc1CNC(=O)[C@H]1N(C(=O)[C@@H](O)[C@H](Cc2ccccc2)NC(=O)c2cccc(F)c2C)COC1(C)C [Example C11, (S)-3-((2S,3S)-3-{[1-(3-Fluoro-2-methyl-phenyl)-methanoyl]-amino}-2-hydroxy-4-phenyl-butanoyl)-5,5-dimethyl-oxazolidine-4-carboxylic acid 2-methyl-benzylamide] | – | 1.1 | 0.00156 |
